These results are taken from paper PMC11134331, “Cell-active small molecule inhibitors validate the SNM1A DNA repair nuclease as a cancer target” (Chemical Science, 2024).

The test system of data set [1] is γH2AX foci in RPE-1 cells. In words: microscopic analysis of damage-induced subnuclear foci, RPE-1 cells. The data set is classed as cell-based, human. To be noted: RPE-1, cisplatin treated, without 19. Here is the method:
(§1) To assess the number of nuclear foci following cisplatin/inhibitor treatments, cells were plated in glass bottom dishes (as above) and allowed to attach. Following treatment, cells were fixed with 4% (v/v) formaldehyde in PBS, blocked with immunofluoresence (IF) blocking buffer (5% horse serum, 1% saponin in PBS) for 1 h, then incubated with primary antibodies at the desired concentrations in IF blocking buffer (overnight, 4 °C).
Images were imported into ImageJ and foci were counted using a macro adjusting for staining levels between experiments. Anti-γH2AX antibodies were a mouse monoclonal (Millipore; JBW301).

The test system of data set [2] is γH2AX and EGFP-SNM1A foci in U2OS cells. In words: microscopic analysis of damage-induced subnuclear foci, U2OS cells expressing EGFP-SNM1A. The data set is classed as cell-based, human. To be noted: U2OS, cisplatin treated, without 19. The protocol:
To this end, cells stably expressing N-terminally EGFP-tagged SNM1A (EGFP-SNM1A) were treated with 50 μM cisplatin alone, 19 (50 μM), or with a combination of both compounds. It is known that on treatment of cells with DNA crosslinking agents, SNM1A forms subnuclear foci that are associated with ongoing sites of DNA repair.[37] […] As previously established, cisplatin treatment efficiently induces co-localisation of EGFP-SNM1A foci and γH2AX foci within 4 hours following treatment, marking sites of cisplatin damage and its repair (Fig. 6C–E). These largely resolved 24 hours post-treatment, again consistent with previous studies.[16,37] Co-treatment of cells with 19 and cisplatin saw a robust induction of SNM1A foci, consistent with the SNM1A activity being dispensable for its localisation to sites of crosslink repair, and γH2AX foci formation (Fig. 6C–E). […] This clear persistence of repair intermediates and trapping of EGFP-SNM1A at the sites of these repair intermediate implies that 19 engages with SNM1A in a cellular context, delaying the completion of cisplatin crosslink repair, which, in turn, results in the sensitisation of cells to cisplatin.
as §1, with “°C). After washing cells three times with PBS, cells were incubated with secondary antibodies for 2–4 hours in IF blocking buffer, washed a further 3 times with PBS then stained with Hoechst 333 258 (1 μg mL^−1 in PBS) for 30 minutes before a further three washes (all washes and incubations were performed at room temperature, unless otherwise stated).” for “°C).”
Confocal images were obtained with a Plan APO 63X 1.40NA oil immersion objective, a pinhole setting of 1 AU, bandpass emission settings of 410–468 nm for Hoechst, 490–544 nm for EGFP, 579–624 nm for RFP or Alexa 568, and 633–695 nm for Alexa 647, a projected pixel dimension of around 110 nm × 110 nm, a pixel dwell time of 1.35 μs, and with a line averaging setting of 2. In order to ensure sufficient cell numbers (N > 300), images were acquired in a tiled 5 × 5 format corresponding to an image area of about 0.65 mm × 0.65 mm. Images were imported into ImageJ and foci were counted using a macro adjusting for staining levels between experiments. Anti-γH2AX antibodies were a mouse monoclonal (Millipore; JBW301).

The target of data set [3] is T1, SNM1C (Homo sapiens, UniProt Q96SD1).
T1 construct: for the MBL and β-CASP domains of SNM1C (aa 1–362) into the baculovirus expression vector pBF-6HZB; made in house; host or cells: Sf9 insect cells (baculovirus)
In words: real-time fluorescence-based nuclease assay, SNM1C. The data set is classed as biochemical. To be noted: real-time fluorescence-based nuclease assay. From the text: There is structural similarity between SNM1A, SNM1B, and SNM1C and major mechanistic features are likely conserved between the three nucleases. We therefore tested (13) and other hydroxamic acid analogues for inhibition of SNM1B and SNM1C. […] Note that the substrate utilised for the high-throughput fluorescence based and subsequent SNM1A and SNM1B assays differed slightly for SNM1C reflecting its (primarily) endonucleolytic, rather than exonucleolytic, activity (ESI Fig. 9 ^†).
(§2) Fluorescence-based nuclease digestion SNM1A–C assays were performed as described.[30,45] In the case of SNM1A and SNM1B, a 20-mer oligonucleotide with a 5′ FITC-conjugated-T and an internal BHQ-1 (black hole quencher) conjugated-T, eight nucleotides distal (3′) to the fluor was utilised; whereas for SNM1C a 20-mer oligonucleotide with a 5′ FITC-conjugated-T and a 3′ BHQ-1(black hole quencher) was used to capture all possible endonucleolytic incisions. Reactions (25 μL) were performed in 384 well microplates in nuclease buffer (20 mM HEPES-KOH pH 7.5, 50 mM KCl, 10 mM MgCl2, 0.5 mM TCEP, 0.05% (v/v) Triton-X, 0.1 mg mL^−1 BSA, 5% (v/v) glycerol) with SNM1A/B/C (0.1 nM SNM1A, 0.5 nM SNM1B and 1 nM SNM1C) as indicated. Proteins were incubated for 10 min at RT with the stated compound where applicable, before the reaction was initiated with the addition of 10 nM DNA substrate. […] Fluorescence spectra were measured every 140 s, for 35 min, at 37 °C. The fluorescence intensity of each well was plotted against compound concentration and fitted using a log (inhibitor) response curve using GraphPad Prism software (GraphPad Software, Inc., La Jolla, CA, USA).

Data set [4] can be described thus: solubility. In kind it is physicochemical.
The target in data set [5] is T2, SNM1B (Homo sapiens, UniProt Q9H816).
T2 construct: for the MBL and β-CASP domains of SNM1B (aa 1–335) into baculoviral expression vectors pFB-CT10HF-LIC; made in house; host or cells: Sf9 insect cells (baculovirus)
T2 sequence (Q9H816 1-335): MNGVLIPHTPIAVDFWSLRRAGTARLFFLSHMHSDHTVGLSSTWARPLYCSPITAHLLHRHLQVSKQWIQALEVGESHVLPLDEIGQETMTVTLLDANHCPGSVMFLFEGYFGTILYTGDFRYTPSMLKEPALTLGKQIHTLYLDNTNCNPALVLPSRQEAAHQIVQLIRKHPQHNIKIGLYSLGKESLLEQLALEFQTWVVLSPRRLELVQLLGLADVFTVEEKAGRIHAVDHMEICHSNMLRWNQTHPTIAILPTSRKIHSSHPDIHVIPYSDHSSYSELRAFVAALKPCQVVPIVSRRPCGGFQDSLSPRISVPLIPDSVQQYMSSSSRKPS
In words: real-time fluorescence-based nuclease assay, SNM1B. The data set is classed as biochemical. The protocol: There is structural similarity between SNM1A, SNM1B, and SNM1C and major mechanistic features are likely conserved between the three nucleases. We therefore tested (13) and other hydroxamic acid analogues for inhibition of SNM1B and SNM1C. Due to differences in catalytic turnover between the three enzymes, different concentrations of SNM1B (1 nM) and SNM1C (2.5 nM) were used compared to that for SNM1A (0.5 nM) in the assays. Note that the substrate utilised for the high-throughput fluorescence based and subsequent SNM1A and SNM1B assays differed slightly for SNM1C reflecting its (primarily) endonucleolytic, rather than exonucleolytic, activity (ESI Fig. 9 ^†).
Fluorescence-based nuclease digestion SNM1A–C assays were performed as described.[30,45] […] Fluorescence was measured using a PHERAstar FSX fluorescent plate reader in fluorescent top read mode using excitation at 495 nm, emission at 525 nm, and cutoff at […]. Fluorescence spectra were measured every 140 s, for 35 min, at 37 °C. The fluorescence intensity of each well was plotted against compound concentration and fitted using a log (inhibitor) response curve using GraphPad Prism software (GraphPad Software, Inc., La Jolla, CA, USA).

Data set [6] has as its target T3, SNM1A (Homo sapiens, UniProt Q6PJP8).
T3 sequence (Q6PJP8 676-1040): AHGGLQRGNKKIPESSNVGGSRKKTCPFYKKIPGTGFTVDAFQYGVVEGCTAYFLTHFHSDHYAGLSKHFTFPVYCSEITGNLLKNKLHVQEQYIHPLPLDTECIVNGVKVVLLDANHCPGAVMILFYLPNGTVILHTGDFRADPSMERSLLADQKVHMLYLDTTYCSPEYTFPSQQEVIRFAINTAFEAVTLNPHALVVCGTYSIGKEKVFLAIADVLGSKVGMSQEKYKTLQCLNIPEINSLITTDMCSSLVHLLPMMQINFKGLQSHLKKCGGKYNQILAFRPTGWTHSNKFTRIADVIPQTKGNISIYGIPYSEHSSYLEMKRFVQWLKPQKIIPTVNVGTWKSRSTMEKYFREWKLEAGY
In words: real-time fluorescence-based nuclease assay, SNM1A. To be noted: resynthesised compounds. Set-up: DNA encoding for the MBL and β-CASP domains of SNM1A (aa 676–1040) was cloned into the baculovirus transfer vector pFB-LIC-Bse; inferred from vector pFB-LIC-Bse and the IMAC purification; made in house; host or cells: Sf9 insect cells (baculovirus). In kind it is biochemical. Here is the method:
(§3) In brief, the fluorescence-based nuclease assay utilises a chemically modified 20-nucleotide ssDNA substrate with a fluorescein isothiocyanate (FITC) derived 5′-group and an internal black-hole-quencher-1 (BHQ-1), located eight nucleotides distal to the fluorescein group. In the intact substrate the BHQ-1 suppresses fluorescence, however, exonucleolytic digestion of the substrate from the 5′ end by SNM1A uncouples the BHQ-1 and FITC moieties (see Fig. 1D). Spectra were measured every 140 seconds with an increase in fluorescence indicating enzymatic activity by SNM1A (concentration: 0.1 nM).
as §2

Data set [7] deals with T3, SNM1A. The arrangement: DNA encoding for the MBL and β-CASP domains of SNM1A (aa 676–1040) was cloned into the baculovirus transfer vector pFB-LIC-Bse; inferred from vector pFB-LIC-Bse and the IMAC purification; made in house; host or cells: Sf9 insect cells (baculovirus). To be noted: cited from earlier work.
The target of data set [8] is T1, SNM1C. To be noted: cited from earlier work.
The target of data set [9] is T3, SNM1A. In words: biochemical. The protocol: as §3
Setting [10] is: real-time fluorescence-based nuclease assay, read-out: SNM1A IC50.

T1 sequence (Q96SD1 1-362): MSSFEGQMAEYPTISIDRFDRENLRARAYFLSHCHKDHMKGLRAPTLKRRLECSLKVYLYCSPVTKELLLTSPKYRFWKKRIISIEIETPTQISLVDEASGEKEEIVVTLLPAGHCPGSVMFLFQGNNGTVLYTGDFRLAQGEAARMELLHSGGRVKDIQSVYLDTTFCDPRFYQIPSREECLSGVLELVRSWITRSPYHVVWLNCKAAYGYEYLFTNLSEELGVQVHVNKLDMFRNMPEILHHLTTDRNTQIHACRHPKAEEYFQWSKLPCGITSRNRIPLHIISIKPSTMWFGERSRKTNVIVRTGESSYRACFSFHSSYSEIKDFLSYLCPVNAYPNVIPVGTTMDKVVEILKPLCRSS

For `N.N.[Cl][Pt][Cl]` [cisplatin, reference compound], the “average γH2AX foci count at 24 hours” value in data set [1] came to 10.4 ± 0.3 foci. For the same compound, in data set [2], the “average number of γH2AX foci at 24 hours” value is listed as 21.5 ± 0.5 foci.
Take `COc1ccc2c3c(cccc13)C(=O)N(O)C2=O` [compound 1]: the IC50 (commonly the point on the concentration scale where inhibition reaches its midpoint) in data set [3] amounted to 0.37 µM; in data set [5], 1.9 µM; in data set [6] (setting [10]), 2.4 µM. In addition, the “solubility” value in data set [4] is recorded as “poor solubility”.
With `CO/N=C(\C(=O)N[C@@H]1C(=O)N2C(C(=O)O)=C(CSc3nc(=O)c(=O)[nH]n3C)CS[C@H]12)c1csc(N)n1` [compound 5, ceftriaxone], the “inhibition of SNM1A (potency in words)” value in [7] is recorded as “low μM potency”. The “inhibition of SNM1C (potency in words)” value in data set [8] is given as “low μM potency”.
For the compound `C=CCNc1nc(N[C@@H](CC(C)C)C(=O)O)c2cc(Cl)ccc2n1` [compound 6], the IC50 was 17.4 µM in data set [9]; 129 µM in data set [6] (SNM1A IC50, real-time fluorescence-based nuclease assay); 110 µM in [6] (setting [10]).
